From patent publication US20110111016A1, “NON-DNA BASE-CONTAINING POLYNUCLEOTIDE COMPOSITIONS AND THEIR USE FOR THE MODULATION OF IMMUNE RESPONSES” (priority 2009, published 2011)

How the values were obtained:
human PBMC = assay: Induction of cytokines and chemokines from human PBMC, comparison with CpG polynucleotides (Milliplex MAP kit); format: cell-based; settings: for Cytokine, IL-6 / Cytokine, IL-10 / Cytokine, MCP-1 / Cytokine, RANTES (CCL5): human PBMC culture supernatant, 48 h, final concentration 10 μg/mL; for Chemokine (MCP-1, RANTES) inducing activity towards human PBMC (in words) / Interleukin (cytokine) inducing activity towards human PBMC (in words): in comparison to LPS and MCC, Table 14
Description: LPS and MCC were included as positive controls as described in Example 7. PBMC were isolated from whole blood using standard Ficoll-Paque Plus (GE Healthcare Life Sciences, Baie d'Urfé, QC, Canada) gradient centrifugation, and placed in tissue culture plates at a concentration of 1×10^6 cells/mL (total volume: 1 mL in RPMI 1640 medium containing 10% heat-inactivated FBS (both from Wisent, St-Bruno, QC, Canada) and 50 μg/mL gentamycin sulfate (Sigma-Aldrich Canada, Oakville, ON, Canada). Non-DNA base-containing polynucleotide SEQ ID NOs: 1, 2, 3, 4, 5, 6, 7, 8 and 9 were added to separate wells to give a final concentration of 10 μg/mL, LPS was added to give a final concentration of 10 μg/mL, and the non-CpG 4010, CpG 2336, CpG 2429 and CpG 7909 polynucleotides, SEQ ID NOs: 31, 33, 35 and 34, respectively, were added to give a final concentration of 10 μg/mL.
The cells were then cultivated for 48 h. Cytokines (interleukins IL-6 and IL-10, chemokines MCP-1 and RANTES) in the culture supernatant were measured using a Milliplex™ MAP kit (Millipore Corporation, Billerica, Mass., USA) on a Bio-Plex 200 system (Bio-Rad Laboratories, Hercules, Calif., USA). MCP-1, also known as monocyte chemotactic protein, is an essential chemokine required for effective monocyte and myeloid dendritic cell activation and trafficking across endothelial and epithelial barriers (see for example Henkel et al, 2004 Ann. Neurol. 55:221-235), and RANTES (Regulated on Activation, Normal T cell Expressed and Secreted, now more commonly known as CCL5) is produced by memory phenotype T cells and is chemotactic for and activates T-cells (see for example Swanson et al, 2002 Immunity 17:605-615).

human TLR4 = target: T1, human TLR4 (Homo sapiens, UniProt O00206+Q9Y6Y9); assay: NF-κB activation (secreted alkaline phosphatase reporter) in HEK293 cells expressing human TLR4; format: cell-based; settings: HEK293/hTLR4 cell line; polynucleotide final concentration 10 μg/mL; 16-20 hours
T1 construct: host or cells: HEK293
T1 sequence (Q9Y6Y9 17-160): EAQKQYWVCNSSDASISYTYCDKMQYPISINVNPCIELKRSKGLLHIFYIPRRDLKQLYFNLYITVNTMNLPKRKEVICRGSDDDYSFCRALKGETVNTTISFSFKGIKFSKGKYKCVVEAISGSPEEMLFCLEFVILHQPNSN
T1 sequence (O00206 24-839): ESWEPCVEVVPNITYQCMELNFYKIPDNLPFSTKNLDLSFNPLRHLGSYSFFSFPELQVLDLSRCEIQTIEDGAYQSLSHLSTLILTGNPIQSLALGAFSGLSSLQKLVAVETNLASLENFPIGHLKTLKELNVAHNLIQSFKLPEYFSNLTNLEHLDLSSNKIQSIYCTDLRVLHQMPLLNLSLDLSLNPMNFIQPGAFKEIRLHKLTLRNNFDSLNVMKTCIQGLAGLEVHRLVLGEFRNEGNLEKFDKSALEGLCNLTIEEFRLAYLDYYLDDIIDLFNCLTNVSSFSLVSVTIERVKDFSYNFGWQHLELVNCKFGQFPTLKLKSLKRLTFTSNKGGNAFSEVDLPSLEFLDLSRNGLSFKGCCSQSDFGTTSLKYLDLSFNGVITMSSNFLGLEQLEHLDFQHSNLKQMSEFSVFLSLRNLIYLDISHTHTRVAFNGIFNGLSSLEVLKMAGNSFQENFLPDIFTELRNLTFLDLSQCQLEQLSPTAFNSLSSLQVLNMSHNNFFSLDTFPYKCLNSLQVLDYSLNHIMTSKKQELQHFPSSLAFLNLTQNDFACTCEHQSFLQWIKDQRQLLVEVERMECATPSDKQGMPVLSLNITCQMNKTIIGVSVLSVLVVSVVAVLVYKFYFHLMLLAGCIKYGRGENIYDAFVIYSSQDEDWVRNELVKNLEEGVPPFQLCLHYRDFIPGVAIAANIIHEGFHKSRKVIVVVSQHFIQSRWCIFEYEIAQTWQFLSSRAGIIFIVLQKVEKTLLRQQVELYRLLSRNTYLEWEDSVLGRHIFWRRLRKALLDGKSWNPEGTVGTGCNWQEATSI
Description: Toll-like receptors (TLR) are known to interact with a number of natural and synthetic molecules that can function as immune adjuvants. Examples of these molecules are Poly (I:C) polynucleotides, lipopolysaccharide and CpG-containing polynucleotides. The interaction of non-DNA base-containing polynucleotides (SEQ ID NOs: 1-3) to interact with TLR and induce down-stream signaling was tested by assessing NF-κB activation in HEK293 cells expressing human TLR2, 3, 4, 5, 7, 8 and 9. TLR engagement was determined by measurement of secreted alkaline phosphatase, under the control of a reporter inducible by NF-κB. Appropriate positive controls were used for each TLR. The non-DNA base-containing polynucleotides were dissolved in sterile water at a concentration of 100 μg/mL, and used at a final concentration of 10 μg/mL. HEK293 cells containing the appropriate TLR and NF-κB reporting system (InvivoGen, San Diego, Calif., USA) were placed in wells of 96 well plates (25,000-50,000 cells, in a final volume of 200 μL medium designed for the detection of NF-κB induced secreted alkaline phosphatase expression), and incubated with non-DNA base-containing polynucleotides or positive controls for 16-20 hours. TLR activating activity was determined by measurement of absorbance at 650 nm wavelength using a Coulter AD340C absorbance detector. The results shown are expressed as Optical Density (OD).

Row | Substance | Cytokine, IL-6 (human PBMC) | Cytokine, IL-10 (human PBMC) | Cytokine, MCP-1 (human PBMC) | Cytokine, RANTES (CCL5) (human PBMC) | Chemokine (MCP-1, RANTES) inducing activity towards human PBMC (in words) (human PBMC) | Interleukin (cytokine) inducing activity towards human PBMC (in words) (human PBMC) | TLR activation, Optical Density at 650 nm, hTLR4 (human TLR4)
1 | IIGTII [SEQ ID NO: 3] | 1 pg/mL | 0 pg/mL | 57 pg/mL | 72 pg/mL | marginal or no | marginal or no | 0.050
2 | NebGGTGNeb (DNA NGGTGN; Nebularine at both ends, sugar and linkages not given here, further chemistry not given here) [SEQ ID NO: 1, 5′-OH, 3′-OH non-DNA base-containing polynucleotide] | 26 pg/mL | 0 pg/mL | 160 pg/mL | 93 pg/mL | marginal or no | marginal or no | 0.050
3 | UUGTUU [SEQ ID NO: 2] | 6 pg/mL | 0 pg/mL | 196 pg/mL | 66 pg/mL | marginal or no | marginal or no | 0.052
